Key:
[1] = target: T1, Cytochrome P450 11B1, mitochondrial (Homo sapiens, UniProt P15538); assay: (§1) Inhibition Assay: The expression plasmids contains the ORF for either human/cyno CYP11B1 or CYP11B2 under the control of a suitable promoter (CMV-promoter) and a suitable resistance marker (neomycin). Using standard techniques the expression plasmid is transfected into G-402 cells and these cells are then selected for expressing the given resistance markers. Individual cell-clones are then selected and assessed for displaying the desired enzymatic activity using 11-Deoxycorticosterone (Cyp11B2) or 11-Deoxycortisol (Cyp11B1) as a substrate.G-402 cells expressing CYP11 constructs were established as described above and maintained in McCoy's 5a Medium Modified, ATCC Catalog No. 30-2007 containing 10% FCS and 400 μg/ml G418 (Geneticin) at 37° C. under an atmosphere of 5% CO2/95% air. Cellular enzyme assays were performed in DMEM/F12 medium containing 2.5% charcoal treated FCS and appropriate concentration of substrate (0.3-10 uM 11-Deoxycorticosterone, 11-Deoxycortisol or Corticosterone). For assaying enzymatic activity, cells were plated onto 96 well plates and incubated for 16 h. An aliquot of the supernatant is then transferred and analyzed for the concentration of the expected product (Aldosterone for CYP11B2; Cortisol for CYP11B1). The concentrations of these steroids can be determined using HTRF assays from CisBio analyzing either Aldosterone or Cortisol.
T1 sequence (P15538 whole entry): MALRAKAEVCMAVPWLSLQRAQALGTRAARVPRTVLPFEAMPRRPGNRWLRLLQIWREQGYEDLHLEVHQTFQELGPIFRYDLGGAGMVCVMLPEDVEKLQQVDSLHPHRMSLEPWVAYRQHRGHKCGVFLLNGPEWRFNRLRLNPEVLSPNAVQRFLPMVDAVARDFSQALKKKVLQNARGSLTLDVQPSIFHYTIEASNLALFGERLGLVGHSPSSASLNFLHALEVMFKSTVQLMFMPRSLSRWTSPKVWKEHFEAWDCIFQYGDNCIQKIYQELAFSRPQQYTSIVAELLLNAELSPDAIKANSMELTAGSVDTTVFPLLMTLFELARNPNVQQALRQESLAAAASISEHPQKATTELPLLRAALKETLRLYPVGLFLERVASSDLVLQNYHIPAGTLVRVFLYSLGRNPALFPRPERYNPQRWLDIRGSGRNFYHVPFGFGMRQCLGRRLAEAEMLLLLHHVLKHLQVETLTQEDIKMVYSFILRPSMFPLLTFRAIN

[2] = target: T2, Cytochrome P450 11B2, mitochondrial (Homo sapiens, UniProt P19099); assay: as §1
T2 sequence (P19099 whole entry): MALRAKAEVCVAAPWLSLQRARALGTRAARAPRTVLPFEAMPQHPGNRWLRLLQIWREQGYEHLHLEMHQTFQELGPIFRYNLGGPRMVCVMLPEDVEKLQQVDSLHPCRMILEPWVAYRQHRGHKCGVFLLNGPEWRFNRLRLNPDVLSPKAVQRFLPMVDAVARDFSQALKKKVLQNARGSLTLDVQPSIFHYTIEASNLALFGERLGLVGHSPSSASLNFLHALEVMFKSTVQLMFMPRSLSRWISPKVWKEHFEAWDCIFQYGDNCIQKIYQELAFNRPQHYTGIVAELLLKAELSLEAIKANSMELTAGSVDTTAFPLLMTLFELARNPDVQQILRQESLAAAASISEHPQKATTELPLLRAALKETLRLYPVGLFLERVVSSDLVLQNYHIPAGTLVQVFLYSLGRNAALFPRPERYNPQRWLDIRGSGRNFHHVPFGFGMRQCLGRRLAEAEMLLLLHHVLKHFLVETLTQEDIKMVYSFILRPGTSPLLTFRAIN

Structure (SMILES): CN1C(=O)CCc2c1ccc(-c1n[nH]cc1CC1CCN(C(=O)c3ccnn3C)CC1)c2F
- EC50 [1]: 76 pM

Structure (SMILES): CN1C(=O)CCc2c1ccc(-c1n[nH]cc1CC1CCN(S(=O)(=O)c3ccnn3C)CC1)c2F
- EC50 [1]: 704 pM
- EC50 [2]: 14 pM

Structure (SMILES): CC(=O)N1CCC(C(C)c2c[nH]nc2-c2ccc3c(c2F)CCC(=O)N3C)CC1 (racemic)
- EC50 [1]: 49 pM

Structure (SMILES): CC(=O)N1CCC(C(C)c2c[nH]nc2-c2cc3c(cc2F)N(C)C(=O)CC3)CC1 (racemic)
- EC50 [1]: 67 pM

Structure (SMILES): CC(=O)N1CCC([C@@H](C)c2c[nH]nc2-c2ccc3c(c2F)CCC(=O)N3C)CC1 (single isomer, unassigned)
- EC50 [1]: 74 pM
- EC50 [2]: 12 pM

Structure (SMILES): CC(=O)N1CCC([C@H](C)c2c[nH]nc2-c2ccc3c(c2F)CCC(=O)N3C)CC1 (single isomer, unassigned)
- EC50 [2]: 64 pM

Reference: ChEMBL document CHEMBL5726546, “Dihydroquinoline pyrazolyl compounds” (2017)
